Test results from patent US7329650B2, “Peptides and peptide analogues designed from HFE protein and their uses in the treatment of iron overload diseases” (Bio-Rad Laboratories, Inc., priority 1998, dated 2008).
Ends that are not written are not given here.

Target: T1, transferrin receptor (TfR) (Homo sapiens, UniProt P02786)
T1 construct: HeLa cells were grown to 80-90% confluence at 37° C. at 5% CO2; endogenous in cells; host or cells: HeLa cells
Experiment: Measurement of cell-associated transferrin (labeled transferrin binding to HeLa cells, Scatchard analysis)
Settings: for effect on TfR affinity for transferrin (in words): HeLa cells, peptide 50 μM or soluble HFE/β2m 100 nM alone

T1 sequence (P02786 whole entry): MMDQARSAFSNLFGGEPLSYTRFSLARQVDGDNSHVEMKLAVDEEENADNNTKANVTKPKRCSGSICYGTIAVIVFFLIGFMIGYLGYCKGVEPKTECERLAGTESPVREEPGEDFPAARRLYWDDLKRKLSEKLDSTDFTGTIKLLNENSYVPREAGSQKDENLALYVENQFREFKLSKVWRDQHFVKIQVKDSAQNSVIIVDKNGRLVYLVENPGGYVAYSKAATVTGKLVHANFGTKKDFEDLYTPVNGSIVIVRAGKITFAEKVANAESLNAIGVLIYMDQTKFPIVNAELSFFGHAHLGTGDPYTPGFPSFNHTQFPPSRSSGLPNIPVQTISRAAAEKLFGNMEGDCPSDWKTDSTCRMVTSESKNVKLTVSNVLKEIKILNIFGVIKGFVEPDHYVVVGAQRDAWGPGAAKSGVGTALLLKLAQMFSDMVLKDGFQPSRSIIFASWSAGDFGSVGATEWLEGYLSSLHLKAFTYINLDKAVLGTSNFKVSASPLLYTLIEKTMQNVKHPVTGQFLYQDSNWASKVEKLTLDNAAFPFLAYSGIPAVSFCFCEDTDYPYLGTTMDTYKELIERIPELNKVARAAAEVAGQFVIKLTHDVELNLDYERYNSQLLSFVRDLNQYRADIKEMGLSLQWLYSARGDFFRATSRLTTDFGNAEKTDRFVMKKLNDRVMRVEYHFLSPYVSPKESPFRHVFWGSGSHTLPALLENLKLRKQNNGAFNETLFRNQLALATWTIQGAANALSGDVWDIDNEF

Row | effect on TfR affinity for transferrin (in words) (FIG. 2 experiment) | effect on TfR affinity for transferrin (in words) (FIG. 3 experiment) | increase of KD of TfR for transferrin versus HeLa cells alone (FIG. 1 experiment, peptide 50 μM or soluble HFE/β2m 100 nM) | Sequence
1 | little effect | little effect | – | GWDHMFTVDFATIMENH [G-(17)-H (Ala)]
2 | – | significant increase in KD | approximately 2 fold | GWDHMFTVDFWTIMENH [G-(17)-H (Trp)]
